Data taken from patent publication US20090047244A1, “MACROCYCLIC SERINE PROTEASE INHIBITORS I” (Idenix Pharmaceuticals, Inc., priority 2007, published 2009).

Experiments:
[1] = Cytotoxicity evaluation (Cell Titer 96 AQueous One Solution Cell Proliferation Assay); format: cell-based; details: human; GS4.1 cells, cellular viability
Method: For cytotoxicity evaluation, GS4.1 cells were treated with compounds as described above and cellular viability was monitored using the Cell Titer 96 AQueous One Solution Cell Proliferation Assay (Promega). CC50 values were determined from the % cytotoxicity versus concentration data with Tecan Magellan software as described above.

HCV NS3-NS4A protease = target: T1, HCV NS3-NS4A protease (Hepatitis C virus genotype 1a, UniProt P27958); assay: HCV Protease Assay (SensoLyte 620 HCV Protease Assay kit); format: biochemical; details: 1.2 nM HCV NS3-NS4A protease, 5% DMSO, 60 min at room temperature
T1 construct: made in house
T1 sequence (P27958 1027-1208): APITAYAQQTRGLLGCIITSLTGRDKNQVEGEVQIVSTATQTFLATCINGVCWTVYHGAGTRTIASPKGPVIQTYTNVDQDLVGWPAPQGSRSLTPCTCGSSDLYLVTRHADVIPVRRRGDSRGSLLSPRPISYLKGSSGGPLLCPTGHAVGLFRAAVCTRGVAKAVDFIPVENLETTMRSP
Method: General procedure: Measurement of the inhibitory effect of compounds on HCV protease activity was performed with the SensoLyte™ 620 HCV Protease Assay kit from AnaSpec, Inc. (San Jose, Calif.) under conditions described by the supplier using 1.2 nM HCV NS3-NS4A protease, which was obtained according to Taremi et al. (Protein Science, 1998, 7, 2143-2149). The compounds were tested at a variety of concentrations in assay buffer containing a final DMSO concentration of 5%. Reactions were allowed to proceed for 60 min at room temperature and fluorescence measurements were recorded with a Tecan Infinity Spectrofluorimeter. The IC50 values were determined from the percent inhibition versus concentration data using a sigmoidal non-linear regression analysis based on four parameters with Tecan Magellan software.

[2] = test system: Huh-7 cells containing HCV Con1 subgenomic replicon (GS4.1 cells); assay: HCV Replicon Assay (NS4A ELISA); format: cell-based; details: Hepatitis C virus, 72 hr, NS4A protein expression by ELISA
Method: General procedure: Huh-7 cells containing HCV Con1 subgenomic replicon (GS4.1 cells) were grown in Dulbecco's Modified Eagle Medium (DMEM) supplemented with 10% fetal bovine serum (FBS), 2 mM L-glutamine, 110 mg/L sodium pyruvate, 1X non-essential amino acids, 100 U/mL penicillin-streptomycin, and 0.5 mg/mL G418 (Invitrogen). For dose-response testing, the cells were seeded in 96-well plates at 7.5×10^3 cells/well in a volume of 50 μL, and incubated at 37° C./5% CO2. Three hours after plating, 50 μL of ten 2-fold serial dilutions of compounds (highest concentration, 75 μM) were added, and cell cultures were incubated at 37° C./5% CO2 in the presence of 0.5% DMSO. Alternatively, compounds were tested at a single concentration of 15 μM. In all cases, Huh-7 cells lacking the HCV replicon served as negative control. The cells were incubated in the presence of compounds for 72 hr after which they were monitored for expression of the NS4A protein by enzyme-linked immunosorbent assay (ELISA). For this, the plates were then fixed for 1 min with acetone/methanol (1:1, v/v), washed twice with phosphate-buffered saline (PBS), 0.1% Tween 20, blocked for 1 hr at room temperature with TNE buffer containing 10% FBS and then incubated for 2 hr at 37° C. with the anti-NS4A mouse monoclonal antibody A-236 (ViroGen) diluted in the same buffer. After washing three times with PBS, 0.1% Tween 20, the cells were incubated 1 hr at 37° C. with anti-mouse immunoglobulin G-peroxidase conjugate in TNE, 10% FBS. After washing as described above, the reaction was developed with O-phenylenediamine (Zymed). The reaction was stopped after 30 min with 2 N H2SO4, and absorbance was read at 492 nm using Sunrise Tecan spectrophotometer. EC50 values were determined from the % inhibition versus concentration data using a sigmoidal non-linear regression analysis based on four parameters with Tecan Magellan software. When screening at a single concentration, the results were expressed as % inhibition at 15 μM.

SMILES | CC50 [1] [µM] | IC50 (HCV NS3-NS4A protease) [µM] | EC50 [2] [µM]
COc1ccc2c(OCC[C@@H]3NC(=O)N(C)CCCC/C=C\[C@@H]4C[C@@]4(C(=O)NS(=O)(=O)N4CCC[C@H]4C#N)NC3=O)cc(-c3nc(C(C)C)cs3)nc2c1Cl | > 1000 | 0.1 to 10 | 0.1 to 10
COc1ccc2c(OCC[C@@H]3NC(=O)N(C)CCCC/C=C\[C@@H]4C[C@@]4(C(=O)NS(=O)(=O)C4(C)CC4)NC3=O)cc(-c3nc(C(C)C)cs3)nc2c1 | 10 to 1000 | < 0.1 | < 0.1
COc1ccc2c(OCC[C@@H]3NC(=O)N(C)CCCC/C=C\[C@@H]4C[C@@]4(C(=O)O)NC3=O)cc(-c3ccccc3)nc2c1 | > 1000 | 0.1 to 10 | 10 to 1000
COc1ccc2c(OCCC3NC(=O)N(C)CCCC/C=C\C4CC4(C(=O)NS(=O)(=O)C4(C)CC4)NC3=O)cc(-c3nc(C(C)C)cs3)nc2c1F (stereo not drawn) | > 1000 | < 0.1 | 0.1 to 10
COc1ccc2c(OCC[C@@H]3NC(=O)N(C)CCCC/C=C\[C@@H]4C[C@@]4(C(=O)OS(=O)(=O)C4(C)CC4)NC3=O)cc(-n3ccc(C(F)(F)F)n3)nc2c1C | > 1000 | < 0.1 | < 0.1
COc1ccc2c(OCC[C@@H]3NC(=O)N(C)CCCC/C=C\[C@@H]4C[C@@]4(C(=O)NS(=O)(=O)C4(C)CC4)NC3=O)cc(-n3ccc(C(F)(F)F)n3)nc2c1Cl | > 1000 | < 0.1 | < 0.1
COc1ccc2c(OCCC3NC(=O)N(C)CCCC/C=C\C4CC4(C(=O)NS(=O)(=O)N4CCOCC4)NC3=O)cc(-c3nc(C(C)C)cs3)nc2c1Cl (stereo not drawn) | > 1000 | 0.1 to 10 | 0.1 to 10
COc1ccc2c(OCC[C@@H]3NC(=O)N(C)CCCC/C=C\[C@@H]4C[C@@]4(C(=O)NS(=O)(=O)C4(I)CC4)NC3=O)cc(-c3nc(C(C)C)cs3)nc2c1C | > 1000 | < 0.1 | 0.1 to 10
CCn1ccc(-c2cc(OCC[C@@H]3NC(=O)N(C)CCCC/C=C\[C@@H]4C[C@@]4(C(=O)OS(=O)(=O)C4(C)CC4)NC3=O)c3ccc(OC)c(C)c3n2)n1 | > 1000 | < 0.1 | 0.1 to 10
COc1ccc2c(C(=O)OCC[C@@H]3NC(=O)N(C)CCCC/C=C\[C@@H]4C[C@@]4(C(=O)NS(=O)(=O)C4CC4)NC3=O)cc(-c3ccccc3)nc2c1 | > 1000 | 0.1 to 10 | > 1000
COc1ccc2c(OCC[C@@H]3NC(=O)N(C)CCCC/C=C\[C@@H]4C[C@@]4(C(=O)NS(=O)(=O)C4(C)CC4)NC3=O)cc(-c3nc(C(C)C)cs3)nc2c1Cl | > 1000 | < 0.1 | < 0.1
COc1ccc2c(OCC[C@@H]3NC(=O)N(C)CCCC/C=C\[C@@H]4C[C@@]4(C(=O)NS(=O)(=O)C4(C)CC4)NC3=O)cc(-c3ccn(CCN4CCOCC4)n3)nc2c1C | > 1000 | < 0.1 | 0.1 to 10
COc1ccc2c(OCC[C@@H]3NC(=O)N(C)CCCC/C=C\[C@@H]4C[C@@]4(C(=O)NS(=O)(=O)C4(C)CC4)NC3=O)cc(-c3nc(C(C)C)cs3)nc2c1C | > 1000 | < 0.1 | < 0.1
COc1ccc2c(OCC[C@@H]3NC(=O)N(C)CCCC/C=C\[C@@H]4C[C@@]4(C(=O)NS(=O)(=O)C4CC4)NC3=O)cc(-c3nc(C(C)C)cs3)nc2c1F | > 1000 | < 0.1 | 10 to 1000
C#CC1(S(=O)(=O)NC(=O)C23CC2/C=C\CCCCN(C)C(=O)NC(CCOc2cc(-c4nc(C(C)C)cs4)nc4c(Cl)c(OC)ccc24)C(=O)N3)CC1 (stereo not drawn) | > 1000 | < 0.1 | < 0.1
COc1ccc2c(OCCC3NC(=O)N(C)CCCC/C=C\C4CC4(C(=O)NS(=O)(=O)C4(C)CC4)NC3=O)cc(-c3nc(C(C)C)cs3)nc2c1Br (stereo not drawn) | > 1000 | < 0.1 | < 0.1
CC(=O)OCC[C@@H]1NC(=O)N(C)CCCC/C=C\[C@@H]2C[C@@]2(C(=O)NS(=O)(=O)C2CC2)NC1=O | > 1000 | 0.1 to 10 | > 1000
COc1ccc2c(OCCC3NC(=O)N(C)CCCC/C=C\C4CC4(C(=O)NS(=O)(=O)C4(C#N)CC4)NC3=O)cc(-c3nc(C(C)C)cs3)nc2c1Cl (stereo not drawn) | > 1000 | < 0.1 | 0.1 to 10
COc1ccc2c(OCC[C@@H]3NC(=O)N(C)CCCC/C=C\[C@@H]4C[C@@]4(C(=O)NS(=O)(=O)C4CC4)NC3=O)cc(-c3nc(C(C)C)cs3)nc2c1Cl | > 1000 | < 0.1 | < 0.1
COc1ccc2c(OCC[C@@H]3NC(=O)N(C)CCCC/C=C\[C@@H]4C[C@@]4(C(=O)NS(=O)(=O)C4(C)CC4)NC3=O)cc(-c3ccn(CCC(C)C)n3)nc2c1C | > 1000 | < 0.1 | 0.1 to 10
COc1ccc2c(OCC[C@@H]3NC(=O)N(C)CCCC/C=C\[C@@H]4C[C@@]4(C(=O)NS(=O)(=O)C4CC4)NC3=O)cc(-c3ccccc3)nc2c1 | > 1000 | < 0.1 | 0.1 to 10
COc1ccc2c(OCC[C@@H]3NC(=O)N(C)CCCC/C=C\[C@@H]4C[C@@]4(C(=O)NS(=O)(=O)C4(C)CC4)NC3=O)cc(-c3cc(C(F)(F)F)nn3C)nc2c1C | > 1000 | < 0.1 | 0.1 to 10
COc1ccc2c(OCC[C@@H]3NC(=O)N(C)CCCC/C=C\[C@@H]4C[C@@]4(C(=O)NS(=O)(=O)C4(CC5CC5)CC4)NC3=O)cc(-c3nc(C(C)C)cs3)nc2c1Cl | > 1000 | < 0.1 | 0.1 to 10
COc1ccc2c(OCC[C@@H]3NC(=O)N(C)CCCC/C=C\[C@@H]4C[C@@]4(C(=O)NS(=O)(=O)C4(C)CC4)NC3=O)cc(-n3ccc(C(C)C)n3)nc2c1C | > 1000 | < 0.1 | < 0.1
COc1ccc2c(OCCC3NC(=O)N(C)CCCC/C=C\C4CC4(C(=O)NS(=O)(=O)C4(F)CC4)NC3=O)cc(-c3nc(C(C)C)cs3)nc2c1Cl (stereo not drawn) | > 1000 | < 0.1 | 0.1 to 10
COc1ccc2c(OCC[C@@H]3NC(=O)N(C)CCCC/C=C\[C@@H]4C[C@@]4(C(=O)S(=O)(=O)C4(C)CC4)NC3=O)cc(-c3ccn(Cc4ccccc4)n3)nc2c1C | > 1000 | < 0.1 | 0.1 to 10
COc1ccc2c(OCC[C@@H]3NC(=O)N(C)CCCC/C=C\[C@@H]4C[C@@]4(C(=O)NS(=O)(=O)C4(C)CC4)NC3=O)cc(-c3ccn(CC(C)C)n3)nc2c1C | > 1000 | < 0.1 | 0.1 to 10
COc1ccc2c(OCC[C@@H]3NC(=O)N(C)CCCC/C=C\[C@@H]4C[C@@]4(C(=O)NS(=O)(=O)N4CCC(F)(F)C4)NC3=O)cc(-c3nc(C(C)C)cs3)nc2c1Cl | > 1000 | 0.1 to 10 | 0.1 to 10
CCC1(S(=O)(=O)NC(=O)[C@@]23C[C@H]2/C=C\CCCCN(C)C(=O)N[C@@H](CCOc2cc(-c4nc(C(C)C)cs4)nc4c(Cl)c(OC)ccc24)C(=O)N3)CC1 | > 1000 | < 0.1 | < 0.1
